Test results from patent US9370515B2, “Mixed lineage kinase inhibitors and method of treatments” (CALIFIA BIO, INC., priority 2013, dated 2016).

Each compound was assayed against MLK-3 (Homo sapiens, UniProt Q16584) (assay: Biochemical assay for the inhibition of kinase activity for MLK-3 (33P-ATP, HOTSPOT filter binding)). Details: activated MLK-3 20 nM, ATP 50 μM, myelin basic protein 20 μM, 20 minutes room temperature.
Experimental: Biochemical Assay for the Inhibition of Kinase Activity for MLK-3: Myelin basic protein (20 μM final concentration) is dissolved in 20 mM Hepes (pH 7.5) containing […], […], 0.02% Brij35, 0.02 mg/ml BSA, 0.1 μM Na3VO4, 2 mM DTT, and 1% DMSO. Activated MLK-3 is added and mixed (20 nM final concentration), and inhibitors are added in DMSO. ^33P-ATP (specific activity 500 μCi/μL) is delivered into the reaction mixture to initiate the reaction (ATP concentration is 50 μM) and the mixture is incubated at room temperature for 20 minutes. % Activity is determined using a proprietary HOTSPOT™ microfluidic filter binding technology. See, Expert Opin. Drug Discov. 2008 June; 3(6): 607-621.

Chain of MLK-3 (Q16584 whole entry): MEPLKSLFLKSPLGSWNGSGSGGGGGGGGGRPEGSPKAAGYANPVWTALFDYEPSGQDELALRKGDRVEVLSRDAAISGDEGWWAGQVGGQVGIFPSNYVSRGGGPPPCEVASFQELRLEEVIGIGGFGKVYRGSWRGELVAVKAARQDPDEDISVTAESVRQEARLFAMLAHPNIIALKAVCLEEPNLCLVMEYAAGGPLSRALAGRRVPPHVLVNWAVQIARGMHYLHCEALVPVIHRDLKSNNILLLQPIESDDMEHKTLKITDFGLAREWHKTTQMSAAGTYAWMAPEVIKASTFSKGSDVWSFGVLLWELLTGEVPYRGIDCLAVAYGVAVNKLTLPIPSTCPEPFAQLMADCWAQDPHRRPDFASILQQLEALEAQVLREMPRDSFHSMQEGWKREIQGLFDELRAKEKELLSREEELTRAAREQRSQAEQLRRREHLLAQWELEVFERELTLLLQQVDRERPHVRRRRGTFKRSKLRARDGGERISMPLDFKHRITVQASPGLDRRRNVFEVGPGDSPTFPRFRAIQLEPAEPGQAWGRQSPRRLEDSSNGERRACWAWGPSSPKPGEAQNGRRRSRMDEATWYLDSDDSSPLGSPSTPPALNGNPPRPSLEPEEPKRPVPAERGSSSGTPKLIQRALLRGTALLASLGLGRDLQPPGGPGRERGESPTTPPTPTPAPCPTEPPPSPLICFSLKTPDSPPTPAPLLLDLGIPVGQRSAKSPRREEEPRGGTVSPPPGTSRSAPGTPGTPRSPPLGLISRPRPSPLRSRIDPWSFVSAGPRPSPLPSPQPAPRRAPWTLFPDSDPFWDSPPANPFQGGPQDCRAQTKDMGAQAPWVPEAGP

| IC50 | SMILES |
| --- | --- |
| 0.1 to 0.5 µM | COc1ccc2cc(-c3cnc4ccc(N[C@H]5CC[C@H](O)CC5)nn34)sc2c1 [Compound 172, trans-4-(3-(6-methoxybenzo[b]thiophen-2-yl)imidazo[1,2-b]pyridazin-6-ylamino)cyclohexanol] |
| < 0.1 µM | COc1cc2cc(-c3cnc4ccc(N[C@H]5CC[C@](C)(O)CC5)nn34)sc2cc1OC [Compound 173, (1r,4r)-4-(3-(5,6-dimethoxybenzo[b]thiophen-2-yl)imidazo[1,2-b]pyridazin-6-ylamino)-1-methylcyclohexanol] |
| 0.1 to 0.5 µM | COc1cc2sc(-c3cnc4ccc(N[C@H]5CC[C@H](O)CC5)nn34)cc2c(OC)c1OC [Compound 176, trans-4-(3-(4,5,6-trimethoxybenzo[b]thiophen-2-yl)imidazo[1,2-b]pyridazin-6-ylamino)cyclohexanol] |
| < 0.1 µM | COc1cc2cc(-c3cnc4ccc(N(C)[C@H]5CC[C@H](O)CC5)nn34)sc2cc1OC [Compound 177, trans-4-(N-(3-(5,6-dimethoxybenzo[b]thiophen-2-yl)imidazo[1,2-b]pyridazin-6-yl)-N-methylamino)cyclohexanol] |
| 0.1 to 0.5 µM | CC(C)Oc1cccc2cc(-c3cnc4ccc(N[C@H]5CC[C@H](O)CC5)nn34)sc12 [Compound 178, trans-4-(3-(7-isopropoxybenzo[b]thiophen-2-yl)imidazo[1,2-b]pyridazin-6-ylamino)cyclohexanol] |
| < 0.1 µM | COc1cc2cc(-c3cnc4ccc(N[C@H]5CC[C@H](O)CC5)nn34)sc2c(OC)c1OC [Compound 179, trans-4-(3-(5,6,7-trimethoxybenzo[b]thiophen-2-yl)imidazo[1,2-b]pyridazin-6-ylamino)cyclohexanol] |
| < 5 µM | O[C@H]1CC[C@H](Nc2ccc3ncc(-c4ccsc4)n3n2)CC1 [Compound 180, trans-(3-(thiophen-3-yl)imidazo[1,2-b]pyridazin-6-ylamino)cyclohexanol] |
| 0.1 to 0.5 µM | CCOc1ccc(Nc2ccc3ncc(-c4cc5cccc(OC)c5s4)n3n2)cc1OC [Compound 181, N-(4-ethoxy-3-methoxyphenyl)-3-(7-methoxybenzo[b]thiophen-2-yl)imidazo[1,2-b]pyridazin-6-amine] |
| < 5 µM | CCCOc1ccc(Nc2ccc3ncc(-c4cc5cccc(OC)c5s4)n3n2)cc1OC [Compound 182, N-(3-methoxy-4-propoxyphenyl)-3-(7-methoxybenzo[b]thiophen-2-yl)imidazo[1,2-b]pyridazin-6-amine] |
| < 5 µM | COc1cc(Nc2ccc3ncc(-c4cc5cccc(OC)c5s4)n3n2)ccc1OC(F)F [Compound 183, N-(4-(difluoromethoxy)-3-methoxyphenyl)-3-(7-methoxybenzo[b]thiophen-2-yl)imidazo[1,2-b]pyridazin-6-amine] |
| < 5 µM | COc1cc(Nc2ccc3ncc(-c4cc5cccc(OC)c5s4)n3n2)ccc1OC(F)(F)F [Compound 184, N-(3-methoxy-4-(trifluoromethoxy)phenyl)-3-(7-methoxybenzo[b]thiophen-2-yl)imidazo[1,2-b]pyridazin-6-amine] |
| < 5 µM | COc1ccc(Nc2ccc3ncc(-c4cc5cccc(OC)c5s4)n3n2)cc1OC(F)(F)F [Compound 185, N-(4-methoxy-3-(trifluoromethoxy)phenyl)-3-(7-methoxybenzo[b]thiophen-2-yl)imidazo[1,2-b]pyridazin-6-amine] |
| 0.1 to 0.5 µM | CCOc1cccc2cc(-c3cnc4ccc(Nc5ccc(OC)c(OC)c5)nn34)sc12 [Compound 186, 3-(7-ethoxybenzo[b]thiophen-2-yl)-N-(3,4-dimethoxyphenyl)imidazo[1,2-b]pyridazin-6-amine] |
| 0.5 to 1 µM | COc1ccc(Nc2ccc3ncc(-c4cc5cccc(OC(F)F)c5s4)n3n2)cc1OC [Compound 187, 3-(7-(difluoromethoxy)benzo[b]thiophen-2-yl)-N-(3,4-dimethoxyphenyl)imidazo[1,2-b]pyridazin-6-amine] |
| < 5 µM | COc1ccc(Nc2ccc3ncc(-c4cc5cccc(OC(F)(F)F)c5s4)n3n2)cc1OC [Compound 188, N-(3,4-dimethoxyphenyl)-3-(7-(trifluoromethoxy)benzo[b]thiophen-2-yl)imidazo[1,2-b]pyridazin-6-amine] |
| < 5 µM | COc1cc(Nc2ccc3ncc(-c4cc5cccc(OC(F)(F)F)c5s4)n3n2)ccc1OC(F)F [Compound 189, N-(4-(difluoromethoxy)-3-methoxyphenyl)-3-(7-(trifluoromethoxy)benzo[b]thiophen-2-yl)imidazo[1,2-b]pyridazin-6-amine] |
| < 5 µM | COc1cc(Nc2ccc3ncc(-c4cc5cccc(OC(F)(F)F)c5s4)n3n2)ccc1OC(F)(F)F [Compound 190, N-(3-methoxy-4-(trifluoromethoxy)phenyl)-3-(7-(trifluoromethoxy)benzo[b]thiophen-2-yl)imidazo[1,2-b]pyridazin-6-amine] |
| < 5 µM | COc1ccc(Nc2ccc3ncc(-c4cc5cc(C)ccc5s4)n3n2)cc1OC [Compound 191, N-(3,4-dimethoxyphenyl)-3-(5-methylbenzo[b]thiophen-2-yl)imidazo[1,2-b]pyridazin-6-amine] |

| IC50 | SMILES |
| --- | --- |
| 0.5 to 1 µM | Cc1ccc2sc(-c3cnc4ccc(N[C@H]5CC[C@H](O)CC5)nn34)cc2c1 [Compound 192, trans-4-(3-(5-methylbenzo[b]thiophen-2-yl)imidazo[1,2-b]pyridazin-6-ylamino)cyclohexanol] |
| < 5 µM | COc1ccc2c(c1)cc(-c1cnc3ccc(Nc4ccc(OC)c(OC)c4)nn13)n2C [Compound 193, 3-(5-methoxy-1-methyl-1H-indol-2-yl)-N-(3,4-dimethoxyphenyl)imidazo[1,2-b]pyridazin-6-amine] |
| < 5 µM | COc1ccc2c(c1)cc(-c1cnc3ccc(N[C@H]4CC[C@H](O)CC4)nn13)n2C [Compound 194, trans-4-(3-(5-methoxy-1-methyl-1H-indol-2-yl)imidazo[1,2-b]pyridazin-6-ylamino)cyclohexanol] |
| < 5 µM | COc1ccc(Nc2ccc3ncc(-c4cc5cccc(C)c5[nH]4)n3n2)cc1OC [Compound 195, N-(3,4-dimethoxyphenyl)-3-(7-methyl-1H-indol-2-yl)imidazo[1,2-b]pyridazin-6-amine] |
| 0.1 to 0.5 µM | Cc1cccc2cc(-c3cnc4ccc(N[C@H]5CC[C@H](O)CC5)nn34)[nH]c12 [Compound 196, trans-4-(3-(7-methyl-1H-indol-2-yl)imidazo[1,2-b]pyridazin-6-ylamino)cyclohexanol] |
| 0.1 to 0.5 µM | COc1ccc(Nc2ccc3ncc(-c4cc5cc(OC)c(OC)cc5[nH]4)n3n2)cc1OC [Compound 197, 3-(5,6-dimethoxy-1H-indol-2-yl)-N-(3,4-dimethoxyphenyl)imidazo[1,2-b]pyridazin-6-amine] |
| < 5 µM | COc1ccc2[nH]c(-c3cnc4ccc(N[C@H]5CC[C@H](OC)CC5)nn34)cc2c1 [Compound 198, trans-3-(5-methoxy-1H-indol-2-yl)-N-(4-methoxycyclohexyl)imidazo[1,2-b]pyridazin-6-amine] |
| < 5 µM | COc1cccc2cc(-c3cnc4ccc(N[C@H]5CC[C@H](OC)CC5)nn34)[nH]c12 [Compound 199, trans-3-(7-methoxy-1H-indol-2-yl)-N-(4-methoxycyclohexyl)imidazo[1,2-b]pyridazin-6-amine] |
| 0.5 to 1 µM | COc1cccc2cc(-c3cnc4ccc(N[C@H]5CC[C@H](OC)CC5)nn34)sc12 [Compound 200, trans-3-(7-methoxybenzo[b]thiophen-2-yl)-N-(4-methoxycyclohexyl)imidazo[1,2-b]pyridazin-6-amine] |
| 0.1 to 0.5 µM | COc1cc2cc(-c3cnc4ccc(N[C@H]5CC[C@H](OC)CC5)nn34)sc2cc1OC [Compound 201, trans-3-(5,6-dimethoxybenzo[b]thiophen-2-yl)-N-(4-methoxycyclohexyl)imidazo[1,2-b]pyridazin-6-amine] |
| < 5 µM | COc1ccc(Nc2ccc3ncc(-c4cc5cccc(C)c5s4)n3n2)cc1OC [Compound 202, N-(3,4-dimethoxyphenyl)-3-(7-methylbenzo[b]thiophen-2-yl)imidazo[1,2-b]pyridazin-6-amine] |
| 0.1 to 0.5 µM | Cc1cccc2cc(-c3cnc4ccc(N[C@H]5CC[C@H](O)CC5)nn34)sc12 [Compound 203, trans-4-(3-(7-methylbenzo[b]thiophen-2-yl)imidazo[1,2-b]pyridazin-6-ylamino)cyclohexanol] |
| 0.1 to 0.5 µM | COc1ccc(Nc2ccc3ncc(-c4cc5cccnc5s4)n3n2)cc1OC [Compound 204, N-(3,4-dimethoxyphenyl)-3-(thieno[2,3-b]pyridin-2-yl)imidazo[1,2-b]pyridazin-6-amine] |
| 0.1 to 0.5 µM | O[C@H]1CC[C@H](Nc2ccc3ncc(-c4cc5cccnc5s4)n3n2)CC1 [Compound 205, trans-4-(3-(thieno[2,3-b]pyridin-2-yl)imidazo[1,2-b]pyridazin-6-ylamino)cyclohexanol] |
| < 0.1 µM | COc1ccc(Nc2ccc3ncc(-c4cc5cnccc5s4)n3n2)cc1OC [Compound 206, N-(3,4-dimethoxyphenyl)-3-(thieno[3,2-c]pyridin-2-yl)imidazo[1,2-b]pyridazin-6-amine] |
| 0.1 to 0.5 µM | O[C@H]1CC[C@H](Nc2ccc3ncc(-c4cc5cnccc5s4)n3n2)CC1 [Compound 207, trans-(3-(thieno[3,2-c]pyridin-2-yl)imidazo[1,2-b]pyridazin-6-ylamino)cyclohexanol] |
| < 5 µM | COc1ccc(Nc2ccc3ncc(-c4cc5ncccc5s4)n3n2)cc1OC [Compound 208, N-(3,4-dimethoxyphenyl)-3-(thieno[3,2-b]pyridin-2-yl)imidazo[1,2-b]pyridazin-6-amine] |
| 0.5 to 1 µM | O[C@H]1CC[C@H](Nc2ccc3ncc(-c4cc5ncccc5s4)n3n2)CC1 [Compound 209, trans-4-(3-(thieno[3,2-b]pyridin-2-yl)imidazo[1,2-b]pyridazin-6-ylamino)cyclohexanol] |
